Measured values reported in patent US4389394A, “Methods for reducing dental caries” (Talres Development (N.A.) N.V., priority 1978, dated 1983).
“Also recorded” adds a separate entry of the source.

Experiments:
[1] = West German Offenlegungsschrift No. 2700036; cited from earlier work
S. mutans [2] = assay: (B) Adherence to teeth: deposition of suspended cells on to glass (Magiscan image analyser); assay type: cell-based, Streptococcus mutans; conditions: for Coverage (%) after 0.5 h / Coverage (%) after 4.0 h: mean of 40 determinations
Source text: (§1) The extent to which cells of S. mutans adhere to teeth was investigated using a recognized model system. Solutions of the same substances as in (A) were made up, and the degree of deposition of suspended cells on to glass was studied using a "Magiscan" image analyser (Talyer et al., 1978 Praktischen Metallographie, Sonderbande 8: 433-442).
Each reading is the mean of 40 determinations.

S. mutans [3] = assay: Scanning electron microscopy of glass with adherent cells; assay type: cell-based, Streptococcus mutans; conditions: sucrose medium; qualitative
[4] = test system: Streptococcus mutans NCTC 10832; assay: (A) Effect on reduction of pH by Streptococcus mutans; assay type: cell-based; conditions: for pH: 0.05 molar each saccharide, 37° C; for Mean pH: Duncan Procedure sub-sets, amino acids where named in the solution
Source text: Mouth flora such as S. mutans cause dental caries by producing acid which erodes the tooth enamel. The cells exude a polysaccharide which firmly adheres them to the tooth surfaces as plaque, thus enhancing the local erosion by the acid. The effect of chlorodeoxysucroses on acid production by S. mutans in sucrose solutions was studied in comparison with the effect produced by xylitol, an agent proposed as a caries preventative.
(§2) Plain aqueous solutions were used and also solutions containing amino acids (protein hydrolysate) 1% w/v to approximate the buffering effect of natural saliva. Control experiments were effected using no saccharide in order to illustrate the endogenous metabolism of the organism. Each experiment was quadruplicated and was run at 37° C. The pH was measured at 0, 0.5, 1, 1.5,2, 3 and 4 hours.

S. mutans [5] = assay: (C) Further tests on pH reduction; assay type: cell-based, Streptococcus mutans; conditions: for Mean pH: 0.055 molar chlorodeoxy derivative, pooled data for 2, 3 and 4 hours, Duncan procedure
Description: as §2
Twelve sets of tests were carried out in the same way as described above at (A) but using solutions which were 0.055 molar in the respective chlorodeoxy derivative.
Solutions of the following were employed:
(i) Saline, negative control for endogenous metabolism
(ii) Sucrose, positive control
(iii) 6,1',6'-trichloro-6,1',6'-trideoxysucrose, compound no. 7.
(iv) Compound no. 7 plus sucrose.
(v) 1',6'-dichloro-1',6'-dideoxysucrose, compound no. 4
(vi) Compound no. 4 plus sucrose
(vii) 4,1',6'-trichloro-4,1',6'-trideoxygalactosucrose, Compound no. 5.
(viii) Compound no. 5 plus sucrose
(ix) 4,6,6'-trichloro-4,6,6'-trideoxygalactosucrose, Compound no. 6
(x) Compound no. 6 plus sucrose
(xi) 1'-chloro-1'-deoxysucrose, compound no. 1
(xii) Compound no. 1 plus sucrose
The acid production was monitored as before.

S. mutans [6] = assay: (D) Further tests on adherence to teeth; assay type: cell-based, Streptococcus mutans; conditions: for adherence of the cells: statement in words; for % coverage after 0.5 hours / % coverage after 4 hours: glass slide, 0.055 molar, Duncan procedure
Description: as §1
While recording the pH during the tests of (C), the adherence was monitored in the same way as in (B). The percentage coverage of a glass slide was determined at 0.5 and 4 hours for each solution, and the results treated by the Duncan procedure.

dental plaque = assay: (F) Human volunteers: acid production by dental plaque after mouthrinse (glucose pre-rinse); assay type: in vivo; conditions: statement in words
Description: The compound 4,1',6'-trichloro-4,1',6'-trideoxygalactosucrose was selected as a suitable candidate for further testing. A mouthrinse in accordance with the invention was prepared using the selected compound as active ingredient. The level of the active ingredient was initially chosen to be such that the mouthrinse tasted the same as a 15% w/v solution of sucrose.
Six subjects were used, who were first acquainted with the available toxicological data and who subsequently agreed to take part in the tests. The subjects were instructed not to clean their teeth on their day of testing. At sampling time, 0 min, each subject took 5% w/v glucose mouthrinse for 2 minutes, then waited a further 8 minutes before the buccal and lingual plaque of one side of the jaw (upper and lower) was removed and placed on aluminium foil and sealed. […]
Samples (0.2 ml) were tested after admixture with 0.1 ml 5% w/v glucose and 0.2 ml sterile saliva. The pH was monitored in quadruplicated tests.
Pooling of data at different times was not justifiable, and the Duncan procedure could not be followed. Data was therefore analysed by computer using an `Analysis of Variance` program and a `Description of Populations` program.

[7] = 0.5 hours, in the presence of sucrose

For `O[C@@H]1[C@@H](O)[C@@H](O[C@]2(CCl)O[C@H](CCl)[C@@H](O)[C@@H]2O)O[C@H](CCl)[C@H]1Cl` [compound 9, 4,6,1',6'-tetrachloro-4,6,1',6'-tetradeoxysucrose], the “sweetness relative to sucrose” value [1] is given as “many times sweeter than sucrose”.

For `OC[C@@H](O)[C@H](O)[C@@H](O)CO` [Xylitol, xylitol], the degree of adhesion (S. mutans [2]; Mann Whitney U-test, statement in words) was “appeared to cause an increase rather than a decrease”, the “Coverage (%) after 0.5 h” value (S. mutans [2]; no amino acid) was 42.31% and the “Coverage (%) after 4.0 h” value (S. mutans [2]; no amino acid) was 74.21%. For the same compound, the “extracellular coating and size of clumps of adherent cells” value (S. mutans [3]) was “No such effect was observed”, the pH ([4]; 0 h, no amino acids) was 5.94 and the pH ([4]; 0.5 h, no amino acids) was 5.50. The pH ([4]; 1.0 h, no amino acids) was 5.42, the pH ([4]; 1.5 h, no amino acids) was 5.39 and the pH ([4]; 2.0 h, no amino acids) was 5.32. The pH ([4]; 3.0 h, no amino acids) was 5.38, the pH ([4]; 4.0 h, no amino acids) was 5.37 and the “Mean pH” value [4] was 5.36. The “effect on acid production” value ([4]; statement in words) was “never had a statistically significally effect; also recorded: non-cariogenic but not anti-cariogenic; also recorded: gave about the same mean pH as when carbohydrate was excluded”.

For `OC[C@H]1O[C@@](CO)(O[C@H]2O[C@H](CO)[C@H](Cl)[C@H](O)[C@H]2O)[C@@H](O)[C@@H]1O` [compound 2, 4-chloro-4-deoxy-α-D-galactopyranosyl-β-D-fructofuranoside], the “sweetness relative to sucrose” value [1] is given as “do not possess such strong sweetening action”.

In the case of `OC[C@H]1O[C@H](O[C@]2(CCl)O[C@H](CCl)[C@@H](O)[C@@H]2O)[C@H](O)[C@@H](O)[C@@H]1O` [Compound no. 4, 1',6'-dichloro-1',6'-dideoxysucrose], the “Mean pH” value (S. mutans [5]) is reported as 5.48, the “adherence of the cells” value (S. mutans [6]; [7]) is reported as “falling in the sub-set g which includes sucrose itself” and the “adherence of the cells” value (S. mutans [6]; 4 hours) is reported as “did not reduce the adherence”. The “% coverage after 0.5 hours” value (S. mutans [6]) was 51.6%, the “% coverage after 4 hours” value (S. mutans [6]) was 70.3% and the “sweetness relative to sucrose” value [1] was “many times sweeter than sucrose”.

With `OC[C@H]1O[C@@](CCl)(O[C@H]2O[C@H](CO)[C@@H](O)[C@H](O)[C@H]2O)[C@@H](O)[C@@H]1O` [Compound no. 1, 1'-chloro-1'-deoxysucrose] the “Mean pH” value (S. mutans [5]) was 5.09, the “adherence of the cells” value (S. mutans [6]; [7]) was “most active compounds at 0.5 hours” and the “adherence of the cells” value (S. mutans [6]; 4 hours) was “the most active”. For the same compound, the “% coverage after 0.5 hours” value (S. mutans [6]) was 35.6%, the “% coverage after 4 hours” value (S. mutans [6]) was 52.3% and the “sweetness relative to sucrose” value [1] was “do not possess such strong sweetening action”.

With `OC[C@H]1O[C@@](CO)(O[C@H]2O[C@H](CO)[C@@H](O)[C@H](O)[C@H]2O)[C@@H](O)[C@@H]1O` [Sucrose, sucrose] the “Mean pH” value (S. mutans [5]) was 4.33, the “Coverage (%) after 0.5 h” value (S. mutans [2]; no amino acid) was 37.28% and the “Coverage (%) after 4.0 h” value (S. mutans [2]; no amino acid) was 65.83%. The “Coverage (%) after 0.5 h” value (S. mutans [2]; with amino acid) was 31.89%, the “Coverage (%) after 4.0 h” value (S. mutans [2]; with amino acid) was 75.95% and the “% coverage after 0.5 hours” value (S. mutans [6]) was 51.2%. The “% coverage after 4 hours” value (S. mutans [6]) was 69.2%, the “extracellular coating and size of clumps of adherent cells” value (S. mutans [3]) was “characteristically clumped and were coated with extracellular polysaccharide” and the pH ([4]; 0 h, no amino acids) was 5.69. For the same compound, the pH ([4]; 0 h, with amino acids 1% w/v) was 5.98, the pH ([4]; 0.5 h, no amino acids) was 4.57 and the pH ([4]; 0.5 h, with amino acids 1% w/v) was 5.55. The pH ([4]; 1.0 h, no amino acids) was 4.57, the pH ([4]; 1.0 h, with amino acids 1% w/v) was 5.36 and the pH ([4]; 1.5 h, no amino acids) was 4.58. For the same compound, the pH ([4]; 1.5 h, with amino acids 1% w/v) was 5.10, the pH ([4]; 2.0 h, no amino acids) was 4.54 and the pH ([4]; 2.0 h, with amino acids 1% w/v) was 5.00. The pH ([4]; 3.0 h, no amino acids) was 4.63, the pH ([4]; 3.0 h, with amino acids 1% w/v) was 4.92 and the pH ([4]; 4.0 h, no amino acids) was 4.55. For the same compound, the pH ([4]; 4.0 h, with amino acids 1% w/v) was 4.79 and the “Mean pH” value [4] was 4.57.

In the case of `O[C@@H]1[C@@H](O)[C@@H](O[C@]2(CCl)O[C@H](CCl)[C@@H](O)[C@@H]2O)O[C@H](CCl)[C@H]1O`, the “antiacidogenic effect on plaque” value (dental plaque) is reported as “Statistically conclusive proof that the mouthrinse was evincing an anti-acidogenic effect was not available” and the “yield of plaque as perceived by subjects” value (dental plaque) is reported as “increased the yield of plaque”.

In the case of `OC[C@H]1O[C@@](CCl)(O[C@H]2O[C@H](CO)[C@H](Cl)[C@H](O)[C@H]2O)[C@@H](O)[C@@H]1O` [compound 3, 4-chloro-4-deoxy-α-D-galactopyranosyl-1-chloro-1-deoxy-β-D-fructofuranoside], the “sweetness relative to sucrose” value [1] is listed as “many times sweeter than sucrose”.

For `OC[C@@]1(O[C@H]2O[C@H](CCl)[C@H](Cl)[C@H](O)[C@H]2O)O[C@H](CCl)[C@@H](O)[C@@H]1O` [Compound no. 6, 4,6-dichloro-4,6-dideoxy-α-D-galactopyranosyl-6-chloro-6-deoxy-β-D-fructofuranoside], the “Mean pH” value (S. mutans [5]) was 5.20, the “% coverage after 0.5 hours” value (S. mutans [6]) was 51.6% and the “% coverage after 4 hours” value (S. mutans [6]) was 70.8%. For the same compound, the “sweetness relative to sucrose” value [1] was “do not possess such strong sweetening action”.

For `O[C@@H]1[C@@H](O)[C@@H](O[C@]2(CCl)O[C@H](CCl)[C@@H](O)[C@@H]2O)O[C@H](CCl)[C@@H]1Cl` [compound 8, 4,6-dichloro-4,6-dideoxy-α-D-galactopyranosyl-1,6-dichloro-1,6-dideoxy-β-D-fructofuranoside], the “sweetness relative to sucrose” value [1] is given as “many times sweeter than sucrose”.

In the case of `O[C@@H]1[C@@H](O)[C@@H](O[C@]2(CCl)O[C@H](CCl)[C@@H](O)[C@@H]2O)O[C@H](CCl)[C@H]1O` [Compound no. 7, 6,1',6'-trichloro-6,1',6'-trideoxysucrose], the “Mean pH” value (S. mutans [5]) is reported as 6.48, the “effect on acid production / pH” value (S. mutans [5]; statement in words, pooled 2, 3 and 4 hours) is reported as “especially effective” and the “adherence of the cells” value (S. mutans [6]; [7]) is reported as “most active compounds at 0.5 hours”. For the same compound, the “adherence of the cells” value (S. mutans [6]; 4 hours) was “the most active”, the “% coverage after 0.5 hours” value (S. mutans [6]) was 29.7% and the “% coverage after 4 hours” value (S. mutans [6]) was 54.2%. For the same compound, the “sweetness relative to sucrose” value [1] was “many times sweeter than sucrose”.
